The results in this text go back to patent US6277866A, “1-benzyl-4[(5,6-dimethoxy-2-fluoro-1-indanon)-2-yl]methylpiperidine” (priority 1999, dated 2001).

This test deals with T1, acetylcholinesterase (Rattus norvegicus, UniProt P37136).
T1 construct: Using a rat brain homogenate as a source of acetylcholinesterase; from tissue; host or cells: rat brain homogenate
The test is described as follows: Inhibitory action on acetylcholinesterase in vitro (rat brain homogenate, Ellman method). The format is biochemical. The settings on record: acetylthiocholine substrate, DTNB, 412 nm, compounds dissolved in physiological saline, read-out: 50% inhibitory concentration (IC50) on acetylcholinesterase. On the procedure: Inhibitory action on acetylcholinesterase in vitro
Using a rat brain homogenate as a source of acetylcholinesterase, its esterase activity was measured in accordance with the method of Ellman et al^1). Acetylthiocholine as the substrate, sample and DTNB (5,5'-dithiobis(2-nitrobenzoic acid)) were added to the homogenate and incubated, whereby the produced thiocholine was reacted with DTNB and the resulting yellow product was measured for the change of absorbance at 412 nm to determine the acetylcholinesterase activity.
Each of the following compounds was used after dissolved in physiological saline.
(DTNB colorimetry detects thiols as they appear.)

Structures can show the parent of a compound that is named as a salt.

T1 sequence (P37136 32-614): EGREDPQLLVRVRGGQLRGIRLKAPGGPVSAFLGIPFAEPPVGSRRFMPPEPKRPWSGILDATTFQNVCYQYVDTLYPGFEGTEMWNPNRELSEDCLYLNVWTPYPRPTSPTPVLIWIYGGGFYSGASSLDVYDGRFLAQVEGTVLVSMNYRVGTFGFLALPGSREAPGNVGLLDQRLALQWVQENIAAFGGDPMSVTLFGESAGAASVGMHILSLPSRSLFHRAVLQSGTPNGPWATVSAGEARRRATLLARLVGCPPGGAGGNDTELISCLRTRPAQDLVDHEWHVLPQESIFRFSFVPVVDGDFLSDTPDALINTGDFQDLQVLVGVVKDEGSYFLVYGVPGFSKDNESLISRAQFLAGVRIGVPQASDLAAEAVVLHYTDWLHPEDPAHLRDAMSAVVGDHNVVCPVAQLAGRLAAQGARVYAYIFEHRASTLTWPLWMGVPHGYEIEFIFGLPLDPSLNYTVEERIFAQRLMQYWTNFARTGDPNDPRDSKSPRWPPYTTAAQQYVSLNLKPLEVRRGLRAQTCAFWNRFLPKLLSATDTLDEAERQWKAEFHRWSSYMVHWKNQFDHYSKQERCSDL

For the compound `COc1cc2c(cc1OC)C(=O)C(F)(CC1CCN(Cc3ccccc3)CC1)C2` (stereo not shown) [Compound 1, 1-benzyl-4-[5,6-dimethoxy-2-fluoro-1-indanon)-2-yl]methylpiperidine hydrochloride], the IC50 was found to be 1.3 nM.
